Data: US8492395B2, “7-substituted quinazolinone compounds and compositions comprising the same” (Celgene Corporation, priority 2007, dated 2013)

Assays:
[1] = system: Namalwa AG4 cells; assay: Cell proliferation assay (3H-thymidine incorporation); assay type: cell-based; details: one collective range stated for the tested compounds, read-out: IC50 values for inhibiting proliferation of Namalwa AG4 cells
Procedure: 5.48.3 Cell Proliferation Assay
Cell lines Namalwa, MUTZ-5, and UT-7 are obtained from the Deutsche Sammlung von Mikroorganismen und Zellkulturen GmbH (Braunschweig, Germany). The cell line KG-1 is obtained from the American Type Culture Collection (Manassas, Va., USA). Cell proliferation as indicated by ^3H-thymidine incorporation is measured in all cell lines as follows.
Cells are plated in 96-well plates at 6000 cells per well in media. The cells are pre-treated with compounds at about 100, 10, 1, 0.1, 0.01, 0.001, 0.0001 and 0 μM in a final concentration of about 0.25% DMSO in triplicate at 37° C. in a humidified incubator at 5% CO2 for 72 hours. One microcurie of 3H-thymidine (Amersham) is then added to each well, and cells are incubated again at 37° C. in a humidified incubator at 5% CO2 for 6 hours. The cells are harvested onto UniFilter GF/C filter plates (Perkin Elmer) using a cell harvester (Tomtec), and the plates are allowed to dry overnight. Microscint 20 (Packard) (25 μl/well) is added, and plates are analyzed in TopCount NXT (Packard). Each well is counted for one minute. Percent inhibition of cell proliferation is calculated by averaging all triplicates and normalizing to the DMSO control (0% inhibition). Each compound is tested in each cell line in three separate experiments. Final IC50s are calculated using non-linear regression, sigmoidal dose-response, constraining the top to 100% and bottom to 0%, allowing variable slope. (GraphPad Prism v3.02).
Abilities of certain compounds for inhibiting proliferation of Namalwa AG4 cells were determined using procedures substantially similar to those described in Section 5.48.3, above.

| SMILES | melting point | IC50 [1] [µM] |
| --- | --- | --- |
| Cc1nc2ccc(CN)cc2c(=O)n1C1CCC(=O)NC1=O.Cl (stereo not shown) | 299 to 301 °C | – |
| Cc1nc2cc(CN)ccc2c(=O)n1C1CCC(=O)NC1=O.Cl (stereo not shown) | 313 to 315 °C | – |
| Cc1ccc(NC(=O)NCc2ccc3nc(C)n(C4CCC(=O)NC4=O)c(=O)c3c2)cc1Cl (stereo not shown) [1-(3-chloro-4-methyl-phenyl)-3-[3-(2,6-dioxo-piperidin-3-yl)-2-methyl-4-oxo-3,4-dihydro-quinazolin-6-ylmethyl]-urea] | 186 to 188 °C | 0.01 to 5.5 |
| Cc1nc2ccc(CNC(=O)Nc3ccc(Cl)cc3)cc2c(=O)n1C1CCC(=O)NC1=O (stereo not shown) [1-(4-chloro-phenyl)-3-[3-(2,6-dioxo-piperidin-3-yl)-2-methyl-4-oxo-3,4-dihydro-quinazolin-6-ylmethyl]-urea] | 225 to 227 °C | 0.01 to 5.5 |
| Cc1cccc(NC(=O)NCc2ccc3nc(C)n(C4CCC(=O)NC4=O)c(=O)c3c2)c1 (stereo not shown) [1-[3-(2,6-dioxo-piperidin-3-yl)-2-methyl-4-oxo-3,4-dihydro-quinazolin-6-ylmethyl]-3-m-tolyl-urea] | 200 to 202 °C | 0.01 to 5.5 |
| Cc1nc2ccc(CNC(=O)Cc3ccc(Cl)cc3)cc2c(=O)n1C1CCC(=O)NC1=O (stereo not shown) [2-(4-chloro-phenyl)-N-[3-(2,6-dioxo-piperidin-3-yl)-2-methyl-4-oxo-3,4-dihydro-quinazolin-6-ylmethyl]-acetamide] | 229.5 to 231.5 °C | 0.01 to 5.5 |
| Cc1nc2ccc(CNC(=O)c3ccc(Cl)c(Cl)c3)cc2c(=O)n1C1CCC(=O)NC1=O (stereo not shown) [3,4-dichloro-N-[3-(2,6-dioxo-piperidin-3-yl)-2-methyl-4-oxo-3,4-dihydro-quinazolin-6-ylmethyl]-benzamide] | – | 0.01 to 5.5 |
| Cc1ccc2c(=O)n(C3CCC(=O)NC3=O)c(C)nc2c1 (stereo not shown) [3-(2,7-dimethyl-4-oxo-4H-quinazolin-3-yl)-piperidine-2,6-dione] | 305 °C (dec.) | – |
| Cc1cccc2c(=O)n(C3CCC(=O)NC3=O)c(C)nc12 (stereo not shown) [3-(2,8-dimethyl-4-oxo-4H-quinazolin-3-yl)-piperidine-2,6-dione] | 296 to 298 °C | – |
| Cc1nc2c(C(F)(F)F)cccc2c(=O)n1C1CCC(=O)NC1=O (stereo not shown) [3-(2-methyl-4-oxo-8-trifluoromethyl-4H-quinazolin-3-yl)-piperidine-2,6-dione] | 351 to 353 °C | – |
| COc1cc2nc(C)n(C3CCC(=O)NC3=O)c(=O)c2cc1OC (stereo not shown) [3-(6,7-dimethoxy-2-methyl-4-oxo-4H-quinazolin-3-yl)-piperidine-2,6-dione] | 325 °C (dec.) | – |
| Cc1nc2c(Br)cccc2c(=O)n1C1CCC(=O)NC1=O (stereo not shown) [3-(8-bromo-2-methyl-4-oxo-4H-quinazolin-3-yl)-piperidine-2,6-dione] | 307 to 309 °C | – |
| Cc1nc2c(O)cccc2c(=O)n1C1CCC(=O)NC1=O (stereo not shown) [3-(8-hydroxy-2-methyl-4-oxo-4H-quinazolin-3-yl)-piperidine-2,6-dione] | 266 to 268 °C | – |
| Cc1nc2ccc(CNC(=O)c3ccc(Cl)cc3)cc2c(=O)n1C1CCC(=O)NC1=O (stereo not shown) [4-chloro-N-[3-(2,6-dioxo-piperidin-3-yl)-2-methyl-4-oxo-3,4-dihydro-quinazolin-6-ylmethyl]-benzamide] | 267 to 269 °C | – |
| Cc1ccc2nc(C)n(C3CCC(=O)NC3=O)c(=O)c2c1 (stereo not shown) [Example 5.1, 3-(2,6-dimethyl-4-oxo-4H-quinazolin-3-yl)-piperidine-2,6-dione] | 270 to 272 °C | – |
| Cc1nc2ccc(F)cc2c(=O)n1C1CCC(=O)NC1=O (stereo not shown) [Example 5.3, 3-(6-fluoro-2-methyl-4-oxo-4H-quinazolin-3-yl)-piperidine-2,6-dione] | 273 to 275 °C | – |
| Cc1nc2ccc(Cl)cc2c(=O)n1C1CCC(=O)NC1=O (stereo not shown) [Example 5.4, 3-(6-chloro-2-methyl-4-oxo-4H-quinazolin-3-yl)-piperidine-2,6-dione] | 276 to 278 °C | – |

| SMILES | melting point | IC50 [1] [µM] |
| --- | --- | --- |
| O=C1CCC(n2cnc3ccc(Cl)cc3c2=O)C(=O)N1 (stereo not shown) [Example 5.7, 3-(6-chloro-4-oxo-4H-quinazolin-3-yl)-piperidine-2,6-dione] | 302 to 305 °C | – |
| Cc1ccc2ncn(C3CCC(=O)NC3=O)c(=O)c2c1 (stereo not shown) [Example 5.9, 3-(6-methyl-4-oxo-4H-quinazolin-3-yl)-piperidine-2,6-dione] | 285 to 287 °C | – |
| Cc1nc2ccc(CNC(=O)OC(C)(C)C)cc2c(=O)n1C1CCC(=O)NC1=O (stereo not shown) [Example 5.11, [3-(2,6-dioxo-piperidin-3-yl)-2-methyl-4-oxo-3,4-dihydro-quinazolin-6-ylmethyl]-carbamic acid tert-butyl ester] | 212.5 to 214.5 °C | – |
| Cc1nc2ccc(CNC(=O)N(C)C)cc2c(=O)n1C1CCC(=O)NC1=O (stereo not shown) [Example 5.15, 3-[3-(2,6-dioxo-piperidin-3-yl)-2-methyl-4-oxo-3,4-dihydro-quinazolin-6-ylmethyl]-1,1-dimethyl-urea] | 264 to 268 °C | – |
| Cc1nc2cc(C(F)(F)F)ccc2c(=O)n1C1CCC(=O)NC1=O (stereo not shown) [Example 5.32, 3-(2-methyl-4-oxo-7-trifluoromethyl-4H-quinazolin-3-yl)-piperidine-2,6-dione] | 277 to 279 °C | – |
| O=C1CCC(n2cnc3cc(F)ccc3c2=O)C(=O)N1 (stereo not shown) [Example 5.33, 3-(7-fluoro-4-oxo-4H-quinazolin-3-yl)-piperidine-2,6-dione] | 296 to 298 °C | – |
| Cc1ccc2c(=O)n(C3CCC(=O)NC3=O)cnc2c1 (stereo not shown) [Example 5.34, 3-(7-methyl-4-oxo-4H-quinazolin-3-yl)-piperidine-2,6-dione] | 313 to 315 °C | – |
| Cc1nc2cc(CNC(=O)OC(C)(C)C)ccc2c(=O)n1C1CCC(=O)NC1=O (stereo not shown) [Example 5.36, [3-(2,6-dioxo-piperidin-3-yl)-2-methyl-4-oxo-3,4-dihydro-quinazolin-7-ylmethyl]-carbamic acid tert-butyl ester] | 240 to 242 °C | – |
| Cc1nc2c(Cl)cccc2c(=O)n1C1CCC(=O)NC1=O (stereo not shown) [Example 5.40, 3-(8-chloro-2-methyl-4-oxo-4H-quinazolin-3-yl)-piperidine-2,6-dione] | 290 to 292 °C | – |
| Cc1cccc2c(=O)n(C3CCC(=O)NC3=O)cnc12 (stereo not shown) [Example 5.44, 3-(8-methyl-4-oxo-4H-quinazolin-3-yl)-piperidine-2,6-dione] | 290 to 292 °C | – |
| Cc1nc2c(Cl)cc(Cl)cc2c(=O)n1C1CCC(=O)NC1=O (stereo not shown) [Example 5.46, 3-(6,8-dichloro-2-methyl-4-oxo-4H-quinazolin-3-yl)-piperidine-2,6-dione] | 238 to 240 °C | – |
| Cc1nc2ccc(CNC(=O)c3cccc(C(F)(F)F)c3)cc2c(=O)n1C1CCC(=O)NC1=O (stereo not shown) [N-[3-(2,6-dioxo-piperidin-3-yl)-2-methyl-4-oxo-3,4-dihydro-quinazolin-6-ylmethyl]-3-trifluoromethyl-benzamide] | 220 to 222 °C | 0.01 to 5.5 |
| Cc1nc2ccc(CNC(=O)c3ccc(OC(F)(F)F)cc3)cc2c(=O)n1C1CCC(=O)NC1=O (stereo not shown) [N-[3-(2,6-dioxo-piperidin-3-yl)-2-methyl-4-oxo-3,4-dihydro-quinazolin-6-ylmethyl]-4-trifluoromethoxy-benzamide] | 165 to 167 °C | 0.01 to 5.5 |
| Cc1nc2ccc(CNC(=O)c3ccc(C(F)(F)F)cc3)cc2c(=O)n1C1CCC(=O)NC1=O (stereo not shown) [N-[3-(2,6-dioxo-piperidin-3-yl)-2-methyl-4-oxo-3,4-dihydro-quinazolin-6-ylmethyl]-4-trifluoromethyl-benzamide] | 221 to 223 °C | 0.01 to 5.5 |
| Cc1nc2ccc(CNC(=O)c3ccc(SC(F)(F)F)cc3)cc2c(=O)n1C1CCC(=O)NC1=O (stereo not shown) [N-[3-(2,6-dioxo-piperidin-3-yl)-2-methyl-4-oxo-3,4-dihydro-quinazolin-6-ylmethyl]-4-trifluoromethyl-sulfanyl-benzamide] | 169 to 171 °C | 0.01 to 5.5 |
| Cc1nc2ccc(CNC(=O)C3CC3)cc2c(=O)n1C1CCC(=O)NC1=O (stereo not shown) [cyclopropanecarboxylic acid [3-(2,6-dioxo-piperidin-3-yl)-2-methyl-4-oxo-3,4-dihydro-quinazolin-6-ylmethyl]-amide] | 281 to 283 °C | – |
| CCCCCCC(=O)NCc1ccc2nc(C)n(C3CCC(=O)NC3=O)c(=O)c2c1 (stereo not shown) [heptanoic acid [3-(2,6-dioxo-piperidin-3-yl)-2-methyl-4-oxo-3,4-dihydro-quinazolin-6-ylmethyl]-amide] | 223 to 225 °C | 0.01 to 5.5 |
